According to patent US12234288B2, “Immunogenic arginase 2 polypeptides” (IO Biotech ApS, priority 2018, dated 2025):
“Also recorded” adds a separate entry of the source.

What was measured:
[1] = system: PBMCs (CD4+ and CD8+ T cells); assay: Intracellular cytokine staining (IFNγ, TNFα) of peptide-stimulated PBMCs by flow cytometry; assay type: cell-based, human; conditions: for intracellular cytokine staining for IFNy and TNFα production: healthy donors and cancer patients with solid tumors, Example 2, FIG. 14B/15D; for double positive (DP) CD4+ cells: FIG. 6
Procedure: Intracellular staining of cell cultures was performed after PBMCs were stimulated with arginase-derived peptides (or incubated with no peptide as a control) for 5 hours in the presence of BD GolgiPlug™ (added after the first hour of peptide stimulation). Stimulated cells were stained with fluorescently labeled antibodies for surface markers (CD3, CD4, CD8) and thereafter permeabilized by using Fixation/Permeabilization and Permeabilization Buffer (eBioscience, cat. 00-{5123-43), according to manufacturer's instructions. Permeabilized cells were then stained with fluorochrome-labeled antibodies for IFNγ and TNFα. Flow cytometry analysis was performed on a FACSCanto™ II (BD Biosciences). Antibodies used: IFNγ-APC (cat.341117), TNFα-[…] BV421 (cat.562783), CD4-FITC (cat.347413), CD8-PerCP (cat.345774), CD3-APC-H7 (cat. 560275) (all from BD Biosciences), dead cells stain-FVS510 (564406, BD Biosciences) according to manufacturer's instructions.
(§1) Intracellular staining of cell cultures was performed on PBMCs after one week of ARG2-derived peptide stimulation in vitro. For the assay, 9×10^5 PBMCs were re-stimulated with ARG2-derived peptides (or incubated with no peptide as a control) for 5 hours in the presence of BD GolgiPlug™ (added after the first hour of peptide stimulation). Stimulated cells were stained with fluorescently labeled antibodies for surface markers (CD3, CD4, CD8) and thereafter permeabilized by using Fixation/Permeabilization and Permeabilization Buffer (eBioscience, cat. 00-{5123-43), according to manufacturer's instructions. Permeabilized cells were then stained with fluorochrome-labeled antibodies for IFNγ and TNFα. Flow cytometry analysis was performed on a FACSCanto™ II (BD Biosciences). Antibodies used: IFNγ-APC, TNFα-BV421, CD4-PerCP, CD8-FITC, CD3-APC-H7, CD4-FITC, CD8-PerCP, and dead cells stain-FVS510 (all from BD Biosciences) according to manufacturer's instructions. For intracellular cytokine staining to detect cytokine production of ARG2-specific T cells in response to target cells, 5×10^5 ARG2 specific cells were incubated with 2.5×10^5 target cells for 5 hours with GolgiPlug™ added after the first hour.

[2] = system: ARG2-specific T cells; assay: ARG2-specific CD4+ T cell culture: IFNy ELISPOT and intracellular cytokine staining toward peptide or target cells; assay type: cell-based, human; conditions: for specificity of the ARG2-specific T cell culture to peptide: intracellular cytokine staining for TNFα and IFNy and IFNy ELISPOT, FIG. 16A/B; for recognition of peptide-pulsed cells by ARG2-specific T cells: IFNy ELISPOT, FIG. 17A
Procedure: ELISPOT assays with ARG2-specific T cells (effector cells) and various immune or cancer cells as target cells (target cells) were setup by placing 1-5×10^4 effector cells (as indicated) and 1-2.5×10^4 target cells (as indicated) in the bottom of an ELISPOT well. Peptide pulsing of target cells were performed by incubation of cells with 20 μM peptide for lhr followed by two washes to remove unbound peptide. These cells served as positive control. Effector cells plated without target cells served as negative control. All conditions were setup in triplicates or quadruplicates.
as §1
The ARG2-specific T cell culture was established by initial stimulation of PMBCs from a prostate cancer patient with irradiated ARG2-1 loaded autologous mature dendritic cells. The following day IL-12 (20 U/ml) and IL-7 (40 U/ml) was added. PBMCs were restimulated every 8 days with ARG2-1 peptide loaded autologous DCs followed by addition of IL-2 (120 U/ml) the next day. ARG2-specific T cells were enriched using IFNy enrichment kit (MiltenyiBiotec) after 4 stimulations. Cells were expanded and ARG2-specific T cells were further enriched using CD4+ enrichment kit (MiltenyiBiotec).
For mRNA, DCs or cancer cells were transfected with ARG1-DC-LAMP mRNA, ARG2-DC-LAMP mRNA or control mRNA encoding eGFP using electroporation parameters as previously described. Briefly, cells were washed twice in Opti-MEM medium (Thermo Scientific) and adjusted to a final cell concentration of 9-12×10^6 cells/ml. 350 μl cell suspension was preincubated on ice for 5 minutes before addition of 10 μg mRNA. The cell suspension was then quickly transferred into a 2-mm (cancer cells) or 4-mm (DCs) gap electroporation cuvette and electroporated (ref: OM paper). After electroporation, cells were quickly transferred to a dish with pre-warmed medium and incubated in humidified atmosphere with 5% CO2 before use for different experimental analysis. mRNA transfected cells were rested for 1 hr before they were setup in ELISPOT assay or rested overnight before set up in intracellular cytokine staining assay. Electroporation efficiency was determined 24 hours post transfection by FACS analysis of the GFP transfected cells. […]

Row | Sequence | intracellular cytokine staining for IFNy and TNFα production [1] | specificity of the ARG2-specific T cell culture to peptide [2] | double positive (DP) CD4+ cells ([1]; healthy donor Buf-M-01, IFN-gamma and TNF-alfa) | double positive (DP) CD4+ cells ([1]; healthy donor Buf-M-02, IFN-gamma and TNF-alfa) | CD8+ T cell response in intracellular cytokine staining ([1]; one cancer patient, FIG. 9) | CD8+ DP cells ([1]; prostate cancer patient UR12, control 0.5%, FIG. 9) | CD4+ T cell response in intracellular cytokine staining ([1]; two healthy donors, Example 1, FIG. 6) | recognition of peptide-pulsed cells by ARG2-specific T cells ([2]; MONO-MAC-1 cells) | recognition of peptide-pulsed cells by ARG2-specific T cells ([2]; OCI-AML2 cells) | recognition of peptide-pulsed cells by ARG2-specific T cells ([2]; THP-1 cells)
1 | SLRGSLSRLLQTRVHSILKKSVHSVAVIGAPFS (listed as Homo sapiens) [A2L2, long ARG2 peptide, aa2-34, 33-mer] | only CD4+ responses | highly specific | – | – | – | – | – | – | – | –
2 | LQTRVHSILKKSVHSVAVIG (listed as Homo sapiens) [ARG2_1, polypeptide derived from human Arginase2, aa11-30] | primarily showed CD4+ responses | highly specific | 0.2% | 0.1% | release more of IFN-gamma (y-axis) and TNF-alfa (x-axis) | 0.9% | reacting specifically; also recorded: release both IFN-gamma (y-axis) or TNF-alfa (x-axis) | effectively recognized | effectively recognized | effectively recognized
